Source: patent US20100317639A1 (priority 2005, published 2010)

Assays:
[1] = test system: ACAT; details: literature statement; cited from earlier work
[2] = test system: X-adrenoleukodystrophic fibroblasts; details: patients suffering from adrenoleucodistrophy; literature; cited from earlier work
[3] = administered in form of triglyceride; literature; cited from earlier work
[4] = literature, cited from earlier work
[5] = test system: acyl-coenzyme A:cholesterol acetyltransferase enzyme (ACAT); experiment: Effect of the ester on ACAT activity in rat hepatic microsomes (14C-linoleic acid incorporation into cholesterol esters, TLC, beta counter); format: biochemical; details: rat liver microsomes 200 micrograms, mean+/-standard error
Description: For the experiments of effectiveness a test to evaluate the effect of the ester formed from linoleic acid obtained from example 1 and example 4 on acyl-coenzyme A:cholesterol acetyltransferase enzyme (ACAT) activity was performed. The experiment was performed in vitro according to a classic pharmacology method, used for the evaluation of the activity of this enzyme, reported in the method book: Drug discovery and evaluation, Pharmacological assay, Ed. H. G: Vogel (Springer), p. 1119, 2002.
Hepatic microsomes were prepared as well as in the example 1.
Eight tubes were prepared, in all tubes linoleic acid-^14C (10 microM) was incubated in presence of 200 micrograms of microsomes. Each tube contained phosphate buffer 0.04 M KH2PO4, pH 7.4 with 0.05 M KCl, 0.03 EDTA, 0.3 M sucrose, 1 mM α-cyclodextrin, final volume 750 microliters. The eight tubes have been incubated at 37° C. for 10 min.
The esters of example 1 and 4 were pooled together and three sample solutions of concentration 12.5, 25 and 50 micromolar respectively were prepared in duplicate, therefore obtaining six sample solutions.
The six sample solutions were then transferred respectively in six of eight tubes prepared as above at the end of the 10 minutes (each concentration of ester separately incubated per tube). The seventh tube was added with ^14C-linoleic acid alone (without esters) and the eighth with ethanol alone (carrier in which the esters were resuspended) to evaluate a possible effect of ethanol on the enzymatic activity. All the eight tubes have been incubated at 37° C. for four minutes.
At the end of the time the reaction was stopped by adding chloroform:methanol 2:1. The samples of the eight tubes were extracted according to the Folch's method (1957). The lower phase of each sample containing the lipid extracts was separated and dried, then taken-up again in 1 ml of chloroform:methanol 2:1. The extract of each sample was dried and subjected to TLC. […]
Spots were highlighted through iodine vapour. The bands which correspond to the standard for each TLC were taken off from the plate and counted in beta counter. […]

## CCCCCCCN(Cc1ccc(CC(C)(C)C)cc1)C(=O)Nc1ccc(F)cc1F [CL 277,082, N-(2,4-difluorophenyl)-N-(4-neopentylbenzyl)-N-(n-heptyl)urea]
[1]
  inhibiting the ACAT activity: very strong and specific

## C[C@]12CCC(=O)C[C@@H]1CC[C@@H]1[C@@H]2CC[C@]2(C)[C@@H](O)CC[C@@H]12 [dihydrotestosterone, 5α-androstan-17β-ol-3-one]
[2]
  beta-oxidation: increase beta-oxidation
  cholesterol esterification processes: reduce cholesterol esterification processes

## C[C@]12CC[C@@H](O)C[C@@H]1CC[C@@H]1[C@@H]2CC[C@]2(C)[C@@H](O)CC[C@@H]12 [5α-androstan-3α,17β-diol]
[2]
  beta-oxidation: increase beta-oxidation
  cholesterol esterification processes: reduce cholesterol esterification processes

## CCCCCCCC/C=C\CCCCCCCCCCCC(=O)O [erucic acid, erucic acid (C22:1)]
[3]
  effectiveness in vitro: only partially effective
[4]; administered in form of triglyceride
  effectiveness in vivo: little effective
[4]; in vivo
  crossing of the hematoencephalic barrier: failed to cross the hematoencephalic barrier

## monoester of the androgen 5α-androstan-3α,17β-diol (3α-diol) and of the linoleic acid (LA) (cis,cis-9,12-octadecadienoic acid) (18:2, n-6) [Example 1]
[5]; ester 12.5 microM
  inhibition percentage with reference to the untreated sample: 2.5
[5]; ester 25 microM
  inhibition percentage with reference to the untreated sample: 44%
[5]; ester 50 microM
  inhibition percentage with reference to the untreated sample: 28%
